These results are taken from patent US20090076092A1, “METHOD FOR DISRUPTING REPRODUCTIVE PERFORMANCE OF ARTHROPODS” (priority 2006, published 2009).

In series [1] the test system is Colorado potato beetle, (Leptinotarsa decemlineata Say). Description: Test E: sub-lethal treatments on adult Colorado potato beetles. It counts as in vivo. The note with it: for Total number of eggs: eggs collected daily for 20 days; for Mean number of viable larvae: larvae that developed to the pupal stage. The procedure: For evaluating the reproductive performance effects on Colorado potato beetle, (Leptinotarsa decemlineata Say), a colony of potato beetles was cultured in the laboratory on potato plants. The pupae were provided soil material to facilitate pupation. On emergence from the soil, the adult beetles were separated into different cages to avoid initial contact between the male and female beetles. Immediately afterwards, the sex of each adult beetle was determined, and each individual insect was placed in a Petri dish and fed with pieces of excised potato leaves, before being placed in a whole plant-containing test unit for treatment with a test compound solution. Each treatment consisted of twenty adult beetles of the same age (10 males and 10 females), and a pair consisting of a male and female was considered to be a replicate; thus there were 10 replicates per treatment.
Test solutions were prepared by diluting the test compound with acetone to provide the selected sub-lethal concentrations. Treatments included Compound 1 at 6.25 and 25 ppm as well as a control without test compound.
A 15 day-old potato plant with 2 to 3 leaves in a round peat pot was infested with 10 pairs of adult beetles, and the test solution was applied at a spray pressure of 310 kPa using a moving boom tunnel sprayer equipped with one Teejet nozzle, model 8003-EVS and calibrated at speed of 1 m/s and 345 kPa to deliver about 280 L/ha. A piece of filter paper was wrapped around the plant and covered the soil, and the spray nozzle was placed 40 cm above the top of potted plant unit so that the upper surface of the leaves was the only part of the plant contacted with the spray mixture.
After 24 h, one treated male and one treated female were transferred onto a covered container containing a potato plant to allow mating to occur. The test units were held in a growth chamber provided with 16 hours of light per day, 70% relative humidity and 20° C. Daily observations were made to record oviposition data. The eggs deposited by the females were collected daily and counted for 20 days. The collected eggs were then placed in a Petri dish lined with moistened paper filter to prevent dehydration, and maintained in an incubator at 20-24° C. with 16 hours of light per day, 70% relative humidity. The number of hatched eggs and the number of viable larvae that developed to the pupal stage were also recorded. The study was discontinued after the remaining unhatched eggs succumbed to fungal infections and high humidity.

The test system of series [2] is diamondback moth (Plutella xylostella). Description: Test G: number of eggs (fecundity) of adult diamondback moth. The series is classed as in vivo. The settings on record: 10 ppm, control itself gave very few eggs. The text has this: For evaluating the reproductive performance effects on diamondback moth (Plutella xylostella), a minimum of 120 larvae of diamondback moth of each sex were used. Male and female individuals of late instar larvae were separated and caged in individual containers containing Chinese kale. Male diamondback moths were identified by a white dot on the abdomen at the late instar larval stage. When pupae emerged, each pupa was caged separately until it emerged as adult.
In addition, a control without test compound was included.
Groups of 40 newly emerged (<24 hours) moths of the same sex were placed inside a meshed cage. The caged adult moths were then sprayed with the test solution, using a CO2 backpack sprayer at 500 L/Ha. For the control treatment, the adults were sprayed with water at a similar spray volume. The groups of treated individuals were then transferred into a clean container with a source of adult diet (i.e. a cotton wick soaked in 10% sucrose solution). Separate containers were used for different groups of treated insects. One day after treatment, the numbers of live, moribund and dead adults were counted. One live treated male and one live treated female were placed together in a copulation cage, which was a 300 mL clear plastic cup covered with nylon screen supplied with an adult diet source of 10% sucrose solution.
Each pair of virgin adults was a replicate, and each treatment consisted of 10 to 20 replicates. Every day each pair of moths was moved to a new cup supplied with a diet of 10% sucrose solution.
The number of eggs laid per female moth was counted daily during the two days when the female moths actively produced viable eggs. The results, listed in Table G, indicate that no meaningful comparative information can be inferred, as the even the Control provided very few eggs per female moth; this indicates a systemic reproduction problem from unknown causes. However, had the Control worked, we expect to see the reproductive performance effects on diamondback moth.

For series [3], the system named is cotton bollworm (Helicoverpa armigera Hübner). Nature of the series: Test H: eggs laid and hatched by treated cotton bollworm adults. It counts as in vivo. The note with it: for No. of eggs hatched / No. of eggs laid: total; for No. of eggs hatched: counted daily for 10 DAT; for No. of eggs laid: counted daily for about 10 days. From the text: For evaluating the reproductive performance effects on cotton bollworm (Helicoverpa armigera Hübner), each test unit consisted of one pair of adult (female and male) Helicoverpa armigera moths. To obtain the adult moths, male and female pupae of approximately the same age (±1 day) were placed in separate containers until adults emerged. After emergence, adult moths of about the same age (±1 day) were selected for testing. Ten adult moths of the same sex were placed in a cage containing a potted cotton plant in a […] container covered with sleeve of fine-mesh polyester material. Then the cages were sprayed over the top with designated treatments of the test compounds using a CO2 sprayer fitted with a flat fan nozzle, calibrated to deliver about 200 mL (500 L/ha) of spray at a spray pressure of 207 kPa. The spray nozzle was placed 60 cm above the top of the cages.
(§1) Sub-lethal rates of Compound 1 on cotton bollworm were estimated based on a preliminary dose-response curve using rates of 10, 25, 50, 80 and 100 ppm. […] Three treatments consisted of test solutions containing Compound 1 at 10, 20 and 30 ppm as well as a control sprayed with water without test compound.
The treated adult moths were transferred individually into a clean container made of a clear plastic cup covered with cloth and supplied with a cotton wick soaked in 10% sucrose solution as adult diet source. Each treatment used 10 adult females and 10 adult males (i.e. 10 replicates per treatment). One day after treatment, a pair of treated adults (male and female) were placed together in a cage made of a 300 mL clear plastic cup with screened cloth cover and containing a source of adult diet, allowing the moths to copulate. Each pair of moths was transferred to a new cup daily. The number of eggs laid was counted daily for about 10 days (which is the period during which female moths typically produce viable eggs) and totaled. To evaluate the viability of eggs, the copulation cages containing eggs were stored in a growth chamber at 24-27° C. with 14 hours of light per day and 70% relative humidity.

The subject of series [4] is cotton bollworm. Description: Preliminary dose-response curve on cotton bollworm. The series is classed as in vivo, Helicoverpa armigera. The settings on record: cotton bollworm adults; preliminary dose-response curve at 10, 25, 50, 80 and 100 ppm.
Source text: The sub-lethal concentrations or doses used in the various tests for the specific pest species and populations tested in the context of the present invention were estimated from multiple-rate, dose-finding tests to determine the control rates and activity break rates. […] Therefore, depending on the target pest species, either the LC50 or a suitable concentration between LC50 and LC20 was selected as the sub-lethal dose. The specific procedures used to select the respective doses are described in each Test.
as §1

A word on the LC50: it is the concentration lethal to half of the exposed cells or organisms. Low readings indicate a more lethal substance, high ones a less lethal substance. As for `CNC(=O)c1cc(Cl)cc(C)c1NC(=O)c1cc(Br)nn1-c1ncccc1Cl` [Compound 1, 3-bromo-N-[4-chloro-2-methyl-6-[(methylamino)carbonyl]phenyl]-1-(3-chloro-2-pyridinyl)-1H-pyrazole-5-carboxamide], the “fecundity and fertility data versus control” value in series [1] (6.25 and 25 ppm) is reported as “not significantly different from the control”. Also, in series [1] (6.25 ppm), the “Mean number of hatched eggs” value was 188, the “Total number of eggs” value came out at 271 and the “Mean number of viable larvae” value stood at 95. Besides, in series [1] (25 ppm), the “Mean number of hatched eggs” value is listed as 219, the “Total number of eggs” value was found to be 287 and the “Mean number of viable larvae” value turned out to be 117. The “No. of eggs per female moth” value in series [2] (1 DAT) is on record as 0. Moreover, the “No. of eggs per female moth” value in series [2] (2 DAT) came to 2.2. Besides, in series [3] (10, 20 and 30 ppm), the “number of eggs hatched as compared to controls” value was “progressively substantially decrease the number of eggs hatched” and the “number of eggs laid as compared to controls” value is reported as “did not consistently reduce the number of eggs laid”. In series [3] (10 ppm), the “No. of eggs hatched” value was 977 and the “No. of eggs laid” value came out at 3412. Besides, in series [3] (20 ppm), the “No. of eggs hatched” value is 778 and the “No. of eggs laid” value came out at 1180. Also, in series [3] (30 ppm), the “No. of eggs hatched” value is 84 and the “No. of eggs laid” value is listed as 4920. In addition, in series [4], the LC20 is given as 18 ppm and the LC50 was found to be 33 ppm.
